# How the values were obtained:
# Assay in all cases: relative viability (nuclei count vs DMSO), 5 days (fraction); higher = more cells survive
# NCI-H2085 = tested on: NCI-H2085
# In short: (§1)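 Each reported value is a median over duplicate plates. It expresses relative viability: treated-well nuclei count divided by vehicle-well nuclei count. Lung cancer cell lines in 1536-well plates were dosed by pin tool a day after seeding, alone with one drug or with a fixed anchor-drug dose plus five library-drug doses (not always all listed) in √10 steps, and nuclei were counted after 5 days.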
# H3255 = tested on: H3255
# In short: as §1
# NCI-H2087 = tested on: NCI-H2087
# In short: as §1
# NCI-H1651 = tested on: NCI-H1651
# In short: as §1
# NCI-H1355 = tested on: NCI-H1355
# In short: as §1
# SK-MES-1 = tested on: SK-MES-1
# In short: as §1
# NCI-H2405 = tested on: NCI-H2405
# In short: as §1
# EMC-BAC-2 = tested on: EMC-BAC-2
# In short: as §1
# NCI-H322M = tested on: NCI-H322M
# In short: as §1
# UMC-11 = tested on: UMC-11
# In short: as §1
# NCI-H2023 = tested on: NCI-H2023
# In short: as §1
# NCI-H1395 = tested on: NCI-H1395
# In short: as §1
# NCI-H1944 = tested on: NCI-H1944
# In short: as §1
# EPLC-272H = tested on: EPLC-272H
# In short: as §1
# LCLC-97TM1 = tested on: LCLC-97TM1
# In short: as §1
# NCI-H1793 = tested on: NCI-H1793
# In short: as §1
# ChaGo-K-1 = tested on: ChaGo-K-1
# In short: as §1
# NCI-H520 = tested on: NCI-H520
# In short: as §1
# HCC-827 = tested on: HCC-827
# In short: as §1
# HCC-44 = tested on: HCC-44
# In short: as §1
compound,measurement,setting,value
O=C(O)c1ccc(-c2c[nH]c3ncc(-c4ccccc4)cc23)cc1C1CCCC1 + CC1(C)CCC(c2ccc(Cl)cc2)=C(CN2CCN(c3ccc(C(=O)NS(=O)(=O)c4ccc(N[C@H](CCN5CCOCC5)CSc5ccccc5)c(S(=O)(=O)C(F)(F)F)c4)cc3)CC2)C1 [Navitoclax] (partner 0.5 µM),relative viability,NCI-H2085; first compound 0.04 µM,1.06
same,relative viability,NCI-H2085; first compound 0.1265 µM,1.1
same,relative viability,NCI-H2085; first compound 0.4 µM,1.04
same,relative viability,NCI-H2085; first compound 1.265 µM,0.72
same,relative viability,H3255; first compound 0.04 µM,0.572
same,relative viability,H3255; first compound 0.1265 µM,0.642
same,relative viability,H3255; first compound 0.4 µM,0.684
same,relative viability,H3255; first compound 1.265 µM,0.463
same,relative viability,NCI-H2087; first compound 0.04 µM,0.856
same,relative viability,NCI-H2087; first compound 0.1265 µM,1.03
same,relative viability,NCI-H2087; first compound 0.4 µM,1.05
same,relative viability,NCI-H2087; first compound 1.265 µM,0.857
same,relative viability,NCI-H1651; first compound 0.04 µM,0.926
same,relative viability,NCI-H1651; first compound 0.1265 µM,0.995
same,relative viability,NCI-H1651; first compound 0.4 µM,0.943
same,relative viability,NCI-H1651; first compound 1.265 µM,0.696
same,relative viability,NCI-H1355; first compound 0.04 µM,0.995
same,relative viability,NCI-H1355; first compound 0.1265 µM,0.957
same,relative viability,NCI-H1355; first compound 0.4 µM,1.03
same,relative viability,NCI-H1355; first compound 1.265 µM,0.683
same,relative viability,SK-MES-1; first compound 0.04 µM,1.19
same,relative viability,SK-MES-1; first compound 0.1265 µM,1.24
same,relative viability,SK-MES-1; first compound 0.4 µM,1.05
same,relative viability,SK-MES-1; first compound 1.265 µM,0.798
same,relative viability,NCI-H2405; first compound 0.04 µM,0.944
same,relative viability,NCI-H2405; first compound 0.1265 µM,0.811
same,relative viability,NCI-H2405; first compound 0.4 µM,0.864
same,relative viability,NCI-H2405; first compound 1.265 µM,0.348
same,relative viability,EMC-BAC-2; first compound 0.04 µM,1.18
same,relative viability,EMC-BAC-2; first compound 0.1265 µM,1.23
same,relative viability,EMC-BAC-2; first compound 0.4 µM,1.16
same,relative viability,EMC-BAC-2; first compound 1.265 µM,1.22
same,relative viability,NCI-H322M; first compound 0.04 µM,1.19
same,relative viability,NCI-H322M; first compound 0.1265 µM,1.37
same,relative viability,NCI-H322M; first compound 0.4 µM,1.34
same,relative viability,NCI-H322M; first compound 1.265 µM,1.03
same,relative viability,UMC-11; first compound 0.04 µM,0.318
same,relative viability,UMC-11; first compound 0.1265 µM,0.299
same,relative viability,UMC-11; first compound 0.4 µM,0.328
same,relative viability,UMC-11; first compound 1.265 µM,0.222
same,relative viability,NCI-H2023; first compound 0.04 µM,1.03
same,relative viability,NCI-H2023; first compound 0.1265 µM,1.11
same,relative viability,NCI-H2023; first compound 0.4 µM,0.987
same,relative viability,NCI-H2023; first compound 1.265 µM,0.904
same,relative viability,NCI-H1395; first compound 0.04 µM,1.13
same,relative viability,NCI-H1395; first compound 0.1265 µM,1.05
same,relative viability,NCI-H1395; first compound 0.4 µM,1.03
same,relative viability,NCI-H1395; first compound 1.265 µM,0.915
same,relative viability,NCI-H1944; first compound 0.04 µM,1.01
same,relative viability,NCI-H1944; first compound 0.1265 µM,1.03
same,relative viability,NCI-H1944; first compound 0.4 µM,1.07
same,relative viability,NCI-H1944; first compound 1.265 µM,0.932
same,relative viability,EPLC-272H; first compound 0.04 µM,1.01
same,relative viability,EPLC-272H; first compound 0.1265 µM,1.16
same,relative viability,EPLC-272H; first compound 0.4 µM,1.06
same,relative viability,EPLC-272H; first compound 1.265 µM,0.811
same,relative viability,LCLC-97TM1; first compound 0.04 µM,0.463
same,relative viability,LCLC-97TM1; first compound 0.1265 µM,0.303
same,relative viability,LCLC-97TM1; first compound 0.4 µM,0.503
same,relative viability,LCLC-97TM1; first compound 1.265 µM,0.396
same,relative viability,NCI-H1793; first compound 0.04 µM,0.538
same,relative viability,NCI-H1793; first compound 0.1265 µM,0.383
same,relative viability,NCI-H1793; first compound 0.4 µM,0.494
same,relative viability,NCI-H1793; first compound 1.265 µM,0.286
same,relative viability,ChaGo-K-1; first compound 0.04 µM,1.16
same,relative viability,ChaGo-K-1; first compound 0.1265 µM,1.3
same,relative viability,ChaGo-K-1; first compound 0.4 µM,0.888
same,relative viability,ChaGo-K-1; first compound 1.265 µM,1.32
same,relative viability,NCI-H520; first compound 0.04 µM,1.1
same,relative viability,NCI-H520; first compound 0.1265 µM,1.08
same,relative viability,NCI-H520; first compound 0.4 µM,1.18
same,relative viability,NCI-H520; first compound 1.265 µM,0.836
same,relative viability,HCC-827; first compound 0.04 µM,0.95
same,relative viability,HCC-827; first compound 0.1265 µM,1.04
same,relative viability,HCC-827; first compound 0.4 µM,0.979
same,relative viability,HCC-827; first compound 1.265 µM,0.798
same,relative viability,HCC-44; first compound 0.04 µM,1.06
same,relative viability,HCC-44; first compound 0.1265 µM,1.01
same,relative viability,HCC-44; first compound 0.4 µM,0.944
same,relative viability,HCC-44; first compound 1.265 µM,0.914
